≈ marks a conversion by molar mass, not a printed value. Read-outs that look alike come from different tables or passages of the source.
Tests used:
P. acnes NCTC 737 [1] = assay: MIC assay; type: cell-based, Propionibacterium acnes; conditions: P. acnes NCTC 737; Wilkins-Chalgren broth pH 6.0, anaerobic, 37° C., 72 hours
Procedure: 2. Propionibacterium spp.—the principal propionibacterial strain used in these studies was Propionibacterium acnes NCTC 737.
(§1) The Propionibacterium spp organisms were cultured and maintained on Wilkins-Chalgren Anaerobe Medium (agar and broth) at pH 6.0; cultures were incubated anaerobically at 37° C. for 72 hours.
(§2) This is a standard international method for quantitatively assessing the antimicrobial activity of a compound in a liquid medium. The method used a 96-well microtitre plate, capable of holding about 200 μl of liquid per well. […] The culture media were as described above for the relevant test organisms.
(§3) The wells were inoculated with a liquid suspension of freshly grown micro-organism and incubated under the conditions described above. After incubation, the microtitre plate was examined visually (with the aid of a light box) for cloudiness in each well, which would indicate microbial growth. The MIC value was recorded as the lowest concentration of test compound required to inhibit microbial growth, i.e., the lowest concentration for which the liquid in the well remained clear.
(§4) The assays were conducted in duplicate and included both negative (culture medium only) and positive (culture medium, diluting solvent and inoculum) controls.
(§5) MIC, MBC and DDA assays, as described above, were carried out using a range of different benzoquinones and hydroquinones. Supplemented DDA assays, in the presence of salt and lipid, were also conducted.

S. aureus ATCC 29213 [2] = assay: MBC assay; type: cell-based, Staphylococcus aureus
Procedure: (§6) The staphylococci and enterococci were cultured and maintained on Mueller-Hinton Medium (agar and broth) at pH 7.2; they were incubated aerobically at 37° C. for 24 hours.
(§7) This assay, normally carried out after an MIC assay, determines the minimum concentration of a compound that is lethal to the micro-organism being tested.
(§8) These samples were then individually sub-cultured on non-selective agar medium, under the incubation conditions described above. Following incubation they were examined visually for bacterial growth.
(§9) The following experiments all used S. aureus ATCC 29213 as the test organism. MIC, MBC and DDA assays, as described above, were carried out using a range of different benzoquinones and hydroquinones. Supplemented DDA assays, in the presence of salt, lipid and blood, were also conducted.

S. aureus ATCC 29213 [3] = assay: Disc diffusion assay (DDA); type: cell-based, Staphylococcus aureus; conditions: S. aureus ATCC 29213, unsupplemented agar, 200 μg per disc (thymoquinone 50 μg, 2,6-dimethoxy-p-benzoquinone 100 μg); for zone of inhibition at 200 µg/disc: Staphylococcus aureus, ATCC29213, read-out: DDA (diameter of zone of inhibition)
Procedure: as §6
(§10) A sterile paper disc was impregnated with a sample of the test compound and a minimum of 30 minutes allowed for the solvents to evaporate as far as possible. The disc was then placed on an agar plate onto which the test micro-organism had been inoculated. The plate was then incubated under the conditions described above, following which it was examined visually for signs of bacterial growth. […] The diameter of this zone of “inhibition” was measured using a ProtoCOL™ automated zone sizer (Synbiosis, Cambridge, UK).
(§11) The area of the zone of inhibition was calculated from the measured zone diameter (D) using the formula π(D/2)^2.
(§12) For most DDA assays, 200 μg of each compound was loaded onto each disc.

P. acnes NCTC 737 [4] = assay: Disc diffusion assay (DDA); type: cell-based, Propionibacterium acnes; conditions: P. acnes NCTC 737; unsupplemented agar; 200 μg per disc (2,6-dimethoxy-p-benzoquinone 100 μg)
Procedure: as §1, §10, §11, §12

S. aureus ATCC 29213 [5] = assay: MIC assay; type: cell-based, Staphylococcus aureus; conditions: S. aureus ATCC 29213, Mueller-Hinton broth pH 7.2, aerobic, 37° C., 24 hours
Procedure: 1. Staphylococcus aureus—the principal staphylococcal test micro-organism used in these studies was Staphylococcus aureus ATCC 29213. This strain is the one recommended for QC/QA purposes in Minimum Inhibitory Concentration (MIC) assays by the US Clinical and Laboratory Standards Institute (formerly the NCCLS), an FDA-recognised body.
as §6, §2, §3, §4, §9

P. acnes NCTC 737 [6] = assay: MBC assay; type: cell-based, Propionibacterium acnes; conditions: P. acnes NCTC 737
Procedure: as §1, §7, §8, §5

S. aureus ATCC 29213 [7] = assay: Supplemented disc diffusion assay; type: cell-based, Staphylococcus aureus; conditions: S. aureus ATCC 29213, 200 μg per disc (thymoquinone 50 μg, 2,6-dimethoxy-p-benzoquinone 100 μg); for zone of inhibition at 200 µg/disc: Staphylococcus aureus, ATCC29213, 24 h
Procedure: as §6, §10
(§13) Performance under these conditions can provide a more reliable indication of activity on topical application. For assays conducted using S. aureus strains, the supplements were defibrinated horse blood (5% v/v), lipid (Tween™ 80 at 1% v/v) and sodium chloride (100 mM). For those using Propionibacterium spp. strains, the supplements were lipid (Tween™ 80 at 1% v/v) and sodium chloride (100 mM).
as §9, §12

P. acnes NCTC 737 [8] = assay: Supplemented disc diffusion assay; type: cell-based, Propionibacterium acnes; conditions: P. acnes NCTC 737, 200 μg per disc (2,6-dimethoxy-p-benzoquinone 100 μg)
Procedure: as §1, §10, §13, §5, §12

[9] = defibrinated horse blood 5% v/v
[10] = Tween 80 at 1% v/v, read-out: DDA + lipid
[11] = defibrinated horse blood 5% v/v, read-out: DDA + blood
[12] = sodium chloride 100 mM, read-out: DDA + salt
[13] = Staphylococcus aureus, ATCC29213, read-out: MBC
[14] = Staphylococcus aureus, ATCC29213, read-out: MIC

| Compound | MIC (P. acnes NCTC 737 [1]) [µg/mL] | MBC (S. aureus ATCC 29213 [2]) [µg/mL] | MIC/MBC ratio (S. aureus ATCC 29213 [2]) | DDA (diameter of zone of inhibition) (S. aureus ATCC 29213 [3]) [mm] | DDA (diameter of zone of inhibition) (P. acnes NCTC 737 [4]) [mm] | MIC (S. aureus ATCC 29213 [5]) [µg/mL] | MIC/MBC ratio (P. acnes NCTC 737 [6]) | DDA + lipid (S. aureus ATCC 29213 [7]; Tween 80 at 1% v/v) [mm] | DDA + blood (S. aureus ATCC 29213 [7]; [9]) [mm] | DDA + salt (S. aureus ATCC 29213 [7]; sodium chloride 100 mM) [mm] | zone of inhibition at 200 µg/disc (S. aureus ATCC 29213 [7]; [10]) [mm] | zone of inhibition at 200 µg/disc (S. aureus ATCC 29213 [7]; [11]) [mm] | zone of inhibition at 200 µg/disc (S. aureus ATCC 29213 [7]; [12]) [mm] | MBC (S. aureus ATCC 29213 [2]; [13]) [µg/mL] | zone of inhibition at 200 µg/disc (S. aureus ATCC 29213 [3]) [mm] | MIC (S. aureus ATCC 29213 [5]; [14]) [µg/mL] | DDA + lipid (P. acnes NCTC 737 [8]; Tween 80 at 1% v/v) [mm] | DDA + salt (P. acnes NCTC 737 [8]; sodium chloride 100 mM) [mm] | MBC (P. acnes NCTC 737 [6]) [µg/mL] |
| --- | --- | --- | --- | --- | --- | --- | --- | --- | --- | --- | --- | --- | --- | --- | --- | --- | --- | --- | --- |
| Cc1c(O)ccc(O)c1C [2,3-dimethyl-p-hydroquinone] | 7.8 (≈ 56.5 µM) | 7.8 (≈ 56.5 µM) | 1 | 33.41 | 18.75 | 7.8 (≈ 56.5 µM) | 0.5 | – | – | – | – | – | – | – | – | – | – | – | – |
| Cc1cc(O)c(C)c(C)c1O [2,5,6-trimethyl-p-hydroquinone] | – | 31.25 (≈ 205 µM) | 0.25 | 63.40 | – | 7.8 (≈ 51.3 µM) | – | 56.97 | 0.0 | 61.63 | – | – | – | – | – | – | – | – | – |
| CC(C)(C)c1cc(O)c(C(C)(C)C)cc1O [2,5-di-t-butyl-p-hydroquinone] | – | 15.6 (≈ 70.2 µM) | 1 | 10.06 | – | 15.6 (≈ 70.2 µM) | – | 10.58 | 10.89 | 11.21 | – | – | – | – | – | – | – | – | – |
| CC(C)(C)C1=CC(=O)C=C(C(C)(C)C)C1=O [2,6-di-t-butyl-p-benzoquinone] | – | – | 0.25 | – | – | – | – | – | – | – | 9.37 | 0 | 0 | 250 (≈ 1130 µM) | 0 | 62.5 (≈ 284 µM) | – | – | – |
| Oc1cc(Cl)c(O)c(Cl)c1 [2,6-dichloro-p-hydroquinone] | – | 31.25 (≈ 175 µM) | 1 | 16.29 | – | 31.25 (≈ 175 µM) | – | 14.32 | 11.83 | 16.19 | – | – | – | – | – | – | – | – | – |
| Oc1ccc(O)c(Br)c1 [2-bromo-p-hydroquinone] | – | 31.25 (≈ 165 µM) | 1 | 20.75 | – | 31.25 (≈ 165 µM) | – | 17.43 | 14.94 | 18.99 | – | – | – | – | – | – | – | – | – |
| Oc1ccc(O)c(Cl)c1 [2-chloro-p-hydroquinone] | – | 7.8 (≈ 54 µM) | 1 | 17.54 | – | 7.8 (≈ 54 µM) | – | 16.81 | 13.70 | 19.30 | – | – | – | – | – | – | – | – | – |
| Cc1cc(O)ccc1O [2-methyl-p-hydroquinone] | 62.5 (≈ 503 µM) | – | 1 | 25.70 | 0.0 | – | 0.5 | – | – | – | – | – | – | – | – | – | 13.07 | 0.0 | 125 (≈ 1010 µM) |
| Cc1cccc(O)c1O [3-methylcatechol] | – | – | 1 | – | – | – | – | – | – | – | 18.7 | 0 | 20.2 | 62.5 (≈ 503 µM) | 19.8 | 62.5 (≈ 503 µM) | – | – | – |
